Reference: paper PMC5831858, “Pharmacological characterisation of CR6086, a potent prostaglandin E2 receptor 4 antagonist, as a new potential disease-modifying anti-rheumatic drug” (Arthritis Research & Therapy, 2018)
Entries after “also recorded” stand apart in the source; their conditions may differ.

Tested on: arthritic rats (collagen-induced arthritis model)
Test: Collagen-induced arthritis in rats: clinical score, oedema, histology
Type: in vivo, rat
Procedure: Male Lewis rats were immunised by intradermal injection at the base of the tail with an emulsion containing 150 μg of bovine collagen type II (bCII) in complete Freund’s adjuvant (CFA) or received an injection with incomplete Freund’s adjuvant (sham group). Three weeks after the first immunisation, animals were boosted with the same procedure. Three days after booster injection, arthritis had developed in all animals but the sham group. Oedema was assessed via plethysmometer (Ugo Basile, Varese, Italy), and the animals were then randomised to treatment groups. Oedema measurement was performed again after 7 and 14 days of treatment. Animals were blindly scored by two different investigators for clinical signs of arthritis (redness, swelling, pain of hind limb joints) as follows: 0 = normal; 1 = mild but definite redness and swelling of the ankle or wrist or individual digits, regardless of the number of affected digits; 2 = moderate redness and swelling of ankle or wrist; 3 = severe redness and swelling of the entire paw including digits; and 4 = maximally inflamed limb with involvement of multiple joints. The mean of the scores assigned by the investigators was calculated.
Three different experiments in rat CIA are reported: a dose-response study, as well as two comparative studies vs the COX-2 inhibitor rofecoxib and the Janus kinase (JAK) inhibitor tofacitinib, respectively.
Briefly, the paws were fixed in 10% neutral buffered formalin (Bio-Optica, Milan, Italy) and subsequently decalcified in EDTA for 4 weeks. Samples were dehydrated in an ethanol series and embedded in paraffin. At least three non-consecutive sections for each paw were blindly scored at the level of the tarsus, metatarsus and calcaneus for the following histological features: synovial oedema, pannus, synovial inflammatory cell infiltrate, cartilage damage, osteolysis and woven bone. Based on these histological features, a synovial score (synovial oedema, plus synovial inflammatory cell infiltrate, plus pannus), a bone score (woven bone plus osteolysis) and a total score were calculated. Two independent pathologists performed histopathology on blinded slides. The data of right and left hind limbs were summed for each rat.

SMILES: O=C([O-])c1ccc(C2(NC(=O)[C@H]3CC4(CCN3Cc3ccc(C(F)(F)F)cc3)CC4)CC2)cc1.[Na+] [CR6086, Sodium (R)-4-(1-(6-(4-(trifluoromethyl)benzyl)-6-azaspiro[2.5]octane-5-carboxamido)cyclopropyl)benzoate]
- effect on structural and inflammatory parameters (oedema, histology) (15 mg/kg once daily, 14 days): markedly and significantly improved all the structural and inflammatory parameters
- effect on arthritis clinical score and oedema (1-10 mg/kg oral daily, 1 h and 24 h post-dosing): significantly and dose-dependently reduced
- efficacy relative to active comparators (CR6086 15 mg/kg once daily, rofecoxib 5–15 mg/kg once daily, tofacitinib 5–25 mg/kg twice daily): more effective than rofecoxib; also recorded: as effective as, but more potent than, tofacitinib
- dose at which efficacy plateaued (oral, once daily, 14 days): around 10 mg/kg
- minimum effective dose (oral, once daily, 14 days): 1 mg/kg
